In patent US20260364186A1, “Chemical Conjugates, Compositions, and Methods of Preparation and Use Thereof” (Transfection Holdings Limited, priority 2022, published 2026):
“Also recorded” adds a separate entry of the source.

Legend:
[1] = test system: HEM (human epidermal melanocytes); assay: FACS uptake of BODIPY FL conjugates, 50 nM, 5 min (Example 1); type: cell-based; conditions: HEM / normal melanocytes
Method: FIG. 1. Conjugate compounds coupled to BODIPY FL were tested for uptake using 50 nM each conjugate and 5 minute incubation with HEM (human epidermal melanocytes) and melanoma cell line NZM11 (BRAF V600E mutant metastatic melanoma). Mean fluorescent intensities (MFI). For these tests, n=300-500, mean±SD. Results were from a single experiment done in triplicate. Cells were sorted by FACS.
Materials and methods: NZM11 is an adherent metastatic melanoma cell derived from a patient with a subcutaneous lesion on their mid back. This human metastatic melanoma is identified with code CBA-1398 from Cell bank Australia. […] Cells of NZM11 diluted in MEMα media and cells of HEMnDP (primary melanocyte cell line) diluted in media 254 were left to settle in 96-wells microplate for 48 hours. 10 μL of 10 mM stock solutions in DMSO from 138 and pantothenic acid/pantothenic acid derivatives coupled to BODIPY were diluted with HBSS to afford 100 nM solution. Then, 100 nM compounds and DMSO solutions were diluted 1:1 with MEMα media for NZM11 and media 254 for HEMnDP to afford 50 nM solutions. After the 48 hour settle time, media was removed from the cells and 200 μL of 50 nM media solutions were poured to each well and incubated for 5 minutes at 37 °C. […] The FACS results output represented the mean of the fluorescence intensities (in arbitrary units) measured for cells sorted in every sample

[2] = test system: NZM11 (BRAF V600E) melanoma cells; assay: FACS uptake of BODIPY FL conjugates, 200 nM, 5 min (Example 2); type: cell-based, human
Method: FIG. 2. Conjugate compounds coupled to BODIPY FL were tested for uptake using 200 nM each conjugate and 5 minute incubation with melanoma cell line NZM11 (BRAF V600E mutant metastatic melanoma), melanoma cell line NZM40 (NRAS Q16H mutant metastatic melanoma) and melanoma cell line NZM9 (BRAF and NRAS wildtype metastatic melanoma). Mean fluorescent intensities (MFI). 2,000 cells (NZM11), 1,000 cells (NZM40) and 500-1,000 cells (NZM9). Cells were sorted by FACS. Bars represent mean±SD. Results were from a single experiment done in triplicate.
Materials and methods: NZM11 is an adherent metastatic melanoma cell which was originally derived from a patient with a subcutaneous lesion on their mid back. This human metastatic melanoma is identified with code CBA-1398 from Cell Bank Australia. […] BRAF is a gene that makes a protein called B-Raf. The gene is involved in sending signals within cells that direct the cell's growth. Around 50% of melanomas bear activating BRAF mutations. In this family of mutations, V600E is the most common, which is a single mutation on codon 600. BRAF mutation is also most common in patients whose tumours arise on skin without chronic sun-induced damage. See Ascierto et al., 2012.
For screening, NZM11, NZM40 and NZM9 cells were suspended at […] dispensed into 96 well plates and left to settle for 48 hours. Then, 10 μL of 10 mM stock solutions in DMSO for the conjugates were diluted with HBSS to afford 400 nM solution. Next, 400 nM compounds and DMSO solutions were diluted 1:1 with MEMα media to afford 200 nM solutions. After 48 hours the media was removed from the 96 well plates and 200 μL of 200 nM conjugates solutions dispensed to each well (in triplicate) and incubated for 5 minutes at 37 °C. After 5 minutes, the media was removed and cells washed with PBS. […] The FACS results output were represented as the mean of the fluorescence intensities (in arbitrary units) measured for cells sorted in every sample.

[3] = test system: HT29 (colorectal cancer cell line); assay: FACS uptake of BODIPY FL conjugates (Example 4); type: cell-based, human; conditions: 200 nM, 5 min
Method: FIG. 4A: Conjugate compounds coupled to BODIPY FL were tested for uptake using 200 nM each conjugate and 5 minute incubation with colorectal cancer cell line HT29. Mean fluorescent intensities (MFI). 1,000 cells were sorted by FACS.
Materials and methods: The HT-29 line was originally isolated from a primary tumour in 1964 from a person. This cell line is positive for expression of N-ras and overexpression of p53 antigen. The human colon adenocarcinoma cell line HT29, is not only used to study the biology of human colon cancers, but it is receiving special interest in studies focused on food digestion and bioavailability due to the ability to express characteristics of mature intestinal cells. The application of this cell line to transport studies of drugs and food compounds is illustrated, especially when the effect of the mucus layer is considered or used as co-culture in combination with Caco-2 cells. These cells have shown a high rate of glucose consumption and therefore, they require high glucose concentration in the medium. Verhoeck et al., 2015.
For these experiments, HT-29 or MEF cells were diluted on αMEM media (supplemented with 10% FBS+1% penicillin-streptomycin) to give a 250 cells/μL suspension of which 200 μL were aliquoted into each well of a 96 well plate followed by incubation for 24 hours. Next, 2 μL of 100 μM stock solutions in DMSO from the conjugates coupled to BODIPY were diluted with 998 μL of αMEM media to give a 200 nM solution. After 24 hour incubation, media was removed and 200 μL of 138 and pantothenic acid/pantothenic acid derivatives coupled to BODIPY 200 nM solutions were added and cells were incubated for 5 minutes at 37 °C. After 5 minutes, the compounds and DMSO solutions were removed and cells were washed with PBS. Then, 100 μL of TrypLE trypsin were added to each well and incubated for 5 minutes at 37 °C. After this time, 100 μL of DMEM media were added to the wells and samples were sorted through FACS biosort. The studies were completed in duplicated wells.

| Compound | uptake (fluorescence intensities) [1] | higher fluorescence intensities compared to enantiomer 126 [2] [fold] | uptake (fluorescence intensities) [2] | uptake (fluorescent intensities) [3] |
| --- | --- | --- | --- | --- |
| CC1=CC(C)=[N+]2C1=Cc1ccc(CCCn3cc(CCNC(=O)/C=C/NC(=O)[C@H](O)C(C)(C)CO)nn3)n1[B-]2(F)F [Compound 124] | no significant uptake | 15 | highest intensities; also recorded: best targeting activity |  |
| CC1=CC(C)=[N+]2C1=Cc1ccc(CCCn3cc(CCNC(=O)/C=C/NC(=O)[C@@H]4OC(C)(C)OCC4(C)C)nn3)n1[B-]2(F)F [Compound 125, (R,E)-N-((((3-[4,4-difluoro-5,7-dimethyl-4-bora-3a,4a-diaza-s-indacene-3-yl]propyl)-1H-1,2,3-triazol-4-yl)eth-ylamino)-3-oxoprop-1-enyl)-2,2,5,5-tetramethyl-1,3-dioxane-4-carboxamide] |  |  | selective uptake; also recorded: significant uptake | moderately higher fluorescent intensities |
| CC1=CC(C)=[N+]2C1=Cc1ccc(CCCn3cc(CCNC(=O)/C=C\NC(=O)[C@H]4OC(C)(C)OCC4(C)C)nn3)n1[B-]2(F)F [Compound 131, (Z)—N-((((3-[4,4-Difluoro-5,7-dimethyl-4-bora-3a,4a-diaza-s-indacene-3-yl]propyl)-1H-1,2,3-triazol-4-yl)ethylamino)-3-oxoprop-1-enyl)-2,2,5,5-tetramethyl-1,3-dioxane-4-carboxamide] | significant uptake |  |  | higher uptakes than their diol counterparts |
